The text below walks through data of US9695178B2, “6-(2-pyridyl)-7,8-dihydro-5H-pyrido[4,3-D]pyrimidine analogs as hedgehog pathway signaling inhibitors and therapeutic applications thereof” (Suzhou Yunxuan Yiyao Keji Youxian Gongsi, priority 2013, dated 2017).

For orientation: IC50 means the concentration that inhibits the measured activity by half. Low readings indicate inhibition by little substance, high ones a need for much substance. Broadly, the Kd is the concentration at which binding is half-saturated.

In one assay the target is Smo (Homo sapiens, UniProt Q99835). The assay can be described thus: Bodipy-Cyclopamine Binding Assay (confirmation assay), Hek293-SMO cells.
Smo, sequence (Q99835 28-787): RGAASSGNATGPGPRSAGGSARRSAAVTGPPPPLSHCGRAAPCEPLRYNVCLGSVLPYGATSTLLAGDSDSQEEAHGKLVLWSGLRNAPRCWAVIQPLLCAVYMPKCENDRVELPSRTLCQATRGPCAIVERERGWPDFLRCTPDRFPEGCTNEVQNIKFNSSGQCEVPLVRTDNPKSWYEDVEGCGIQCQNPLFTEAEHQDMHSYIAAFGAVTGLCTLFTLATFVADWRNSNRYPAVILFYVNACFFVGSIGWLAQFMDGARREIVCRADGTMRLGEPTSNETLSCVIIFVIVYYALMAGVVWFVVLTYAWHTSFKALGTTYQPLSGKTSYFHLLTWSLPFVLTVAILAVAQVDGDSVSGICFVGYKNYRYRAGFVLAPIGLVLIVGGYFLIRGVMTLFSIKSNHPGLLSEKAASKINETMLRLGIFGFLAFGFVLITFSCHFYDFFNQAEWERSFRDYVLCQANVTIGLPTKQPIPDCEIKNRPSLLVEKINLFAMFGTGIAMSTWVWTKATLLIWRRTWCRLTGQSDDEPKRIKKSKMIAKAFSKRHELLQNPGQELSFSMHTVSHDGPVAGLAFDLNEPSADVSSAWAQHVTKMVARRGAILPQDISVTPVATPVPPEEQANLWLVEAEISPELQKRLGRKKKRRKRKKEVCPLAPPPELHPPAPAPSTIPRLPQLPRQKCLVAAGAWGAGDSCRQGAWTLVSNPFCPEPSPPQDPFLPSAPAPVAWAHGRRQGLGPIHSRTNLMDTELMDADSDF
Conditions: not given
`Clc1cnc(N2CCc3nc(NC4CC4)ncc3C2)cc1-c1ccc2ccccc2n1` [Compound A-112, 6-(5-chloro-4-(quinolin-2-yl)pyridin-2-yl)-N-cyclopropyl-5,6,7,8-tetrahydropyrido-[4,3-d]pyrimidin-2-amine] yielded an IC50 of 113 nM.

Take `Clc1cnc(N2CCc3nc(NC4CC4)ncc3C2)cc1-c1ccccn1` [Compound A-113, 6-(5′-chloro-2,4′-bipyridin-2′-yl)-N-cyclopropyl-5,6,7,8-tetrahydropyrido-[4,3-d]pyrimidin-2-amine]: the 50% inhibitory concentration (IC50) turned out to be 470 nM.

Consider `FC(F)(F)c1ccc(-c2cc(N3CCc4nc(NC5CC5)ncc4C3)ncc2Cl)nc1` [Compound A-114, 6-(5′-chloro-5-(trifluoro-methyl)-2,4′-bipyridin-2′-yl)-N-cyclopropyl-5,6,7,8-tetrahydro-pyrido-[4,3-d]pyrimidin-2-amine], for which the IC50 was greater than 1000 nM.

`Clc1cnc(N2CCc3nc(NC4CC4)ncc3C2)cc1-c1ncccn1` [Compound A-115, 6-(5-chloro-4-(pyrimidin-2-yl)pyridin-2-yl)-N-cyclopropyl-5,6,7,8-tetrahydropyrido[4,3-d]pyrimidin-2-amine]: the IC50 is greater than 1000 nM.

`Clc1cnc(N2CCc3nc(NC4CC4)ncc3C2)cc1-c1cnccn1` [Compound A-116, 6-(5-chloro-4-(pyrazin-2-yl)pyridin-2-yl)-N-cyclopropyl-5,6,7,8-tetrahydropyrido[4,3-d]pyrimidin-2-amine] displayed an IC50 of 235 nM.

Consider `Clc1cnc(N2CCc3nc(NC4CC4)ncc3C2)cc1-c1nccs1` [Compound A-117, 6-(5-chloro-4-(thiazol-2-yl)pyridin-2-yl)-N-cyclopropyl-5,6,7,8-tetrahydropyrido[4,3-d]pyrimidin-2-amine], for which the IC50 was 169 nM.

As for `Clc1cnc(N2CCc3nc(NC4CC4)ncc3C2)cc1-c1cccnc1` [Compound A-118, 6-(5′-chloro-3,4′-bipyridin-2′-yl)-N-cyclopropyl-5,6,7,8-tetrahydro-pyrido-[4,3-d]pyrimidin-2-amine], the IC50 is greater than 1000 nM.

The assay is the same for the next values; noted with them: read-out: Kd of bodipy-cyclopamine for WT-Smo; used in the Cheng-Prusoff equation.
In the case of `CC1=C2CC3C(CC=C4C[C@@H](O)CCC43C)C2CCC12O[C@@H]1CC(C)CN(CCNC(=O)CCCCCNC(=O)CCC3=[N+]4C(=Cc5c(C)cc(C)n5[B-]4(F)F)C=C3)C1C2C` (some centres unmarked) [bodipy-cyclopamine, reference compound], the dissociation constant (Kd) amounted to 3.5 ± 0.8 nM.
